According to article PMC8037310, “Thrombin-Derived Peptides Potentiate the Activity of Gram-Positive-Specific Antibiotics against Gram-Negative Bacteria” (Molecules, 2021):
Values joined by “and” are separate entries in the source; they are usually repeats but may differ in a detail not shown here. Identical values can stand only once. Like-named read-outs stand apart in the source and are kept apart here. Square brackets hold non-standard residues; d marks the D form. Peptide text beside a SMILES is read from it.

Assays:
[1] = test system: E. coli BW25113; assay type: cell-based, Escherichia coli; settings: for FICi: BW25113, 20 h; for MSCrif: rifampicin concentration in the combination giving the lowest FICi; for MSCrif / MSCpep: E. coli BW25113; for MICpep: synergist alone, E. coli BW25113, from checkerboard with rifampicin; for MSCpep: synergist concentration in the combination with rifampicin giving the lowest FICi
Description: (§1) All peptides were screened for antimicrobial activity against E. coli BW25113, E. coli ATCC25922, and E. coli W3110. A select group of the peptides was further tested against E. coli mcr-1, E. coli EQASmcr-1 (EQAS 2016 412016126), E. coli EQASmcr-2 (EQAS 2016 KP37), E. coli EQASmcr-3 (EQAS 2017 2013-SQ352), K. pneumoniae ATCC13883, P. aeruginosa ATCC27853, and A. baumannii ATCC17978. The antimicrobial assay was performed according to CLSI guidelines. Bacteria were plated out directly from their glycerol stocks on blood agar plates, incubated overnight at 37 °C, and then kept in the fridge. The blood agar plates were only used for 2 weeks and then replaced.
(§2) One colony from a blood agar plates was inoculated in Lysogeny Broth (LB) at 37 °C until a 0.5 optical density at 600 nm (OD600) was reached (compared to the sterility control of LB). The bacterial suspension was diluted in fresh LB to 2.0 × 10^6 CFU/mL. The serial dilutions were prepared in polypropylene microtiter plates: a stock of the test compounds was prepared with a 2x final concentration in LB. Moreover, 100 µL of the stock was added to the wells of the top row of which 50 µL was used for the serial dilution. The bottom row of each plate was used as the positive (50 µL of LB) and negative controls (100 µL of LB) (6 wells each). Furthermore, 50 µL of the 2.0 × 10^6 CFU/mL bacterial stock was added to each well except for the negative controls, adding up to a total volume of 100 µL per well. The plates were sealed with a breathable seal and incubated for 20 h at 37 °C and 600 rpm.
(§3) Two 96-well plates were required per compound. A serial dilution of the compound was performed on two plates from row A–G using with LB as medium. Row H was filled with 25 µL medium. On a separate plate a negative control (8 wells, 100 μL medium) was prepared. For all concentrations of antibiotic a specific stock was prepared. 25 µL medium was added to the 0 µg/mL antibiotic columns (plate I, column 1–3). Of each antibiotic stock 25 µL was added to three columns to obtain triplicates for every condition. Both plates contained 50 µL in each well to which 50 µL bacterial stock was added (see the protocol of the MIC assays) and the plates were sealed. After incubation for 20 h at 37 °C while shaking, the breathable seals were removed and the density of the bacterial suspensions measured at 600 nm (OD600) using a Tecan Spark plate reader. The OD600 values were transformed to a 2D gradient with the negative control as minimum and the positive control (wells G1, G2, and G3) as maximum in excel. The FICi was calculated using Equation (1) with a FICi ≤ 0.5 indicating synergy. FICi = (MSCa/MICa) + (MSCb/MICb),(1)
(§4) Calculation of the FICi: MSCa = concentration of the […] in combination with the antibiotic that results in the lowest FICi. MICa = MIC of the antibiotic without synergist (row G). MSCb = concentration of the synergist in combination with the antibiotic that results in the lowest FICi. MICb = MIC of the synergist itself (Column 1–3, plate I).

[2] = test system: defibrinated sheep blood (red blood cells); test: Hemolysis assay; assay type: cell-based; settings: 200 µg/mL compound, 20 h incubation at 37 °C with defibrinated sheep blood, PBS 0.002% Tween20, absorbance 415 nm, relative to 0.1% Triton X-100; n=3 technical replicates
Description: Defibrinated sheep blood (Thermo Fisher Scientific) and a phosphate-buffered saline (PBS) buffer containing 0.002% Tween20 were used in this assay. The red blood cells were washed with buffer followed by centrifugation (400 g for 15 min at 4 °C). The red blood cells were then normalized to obtain a positive control read-out around 2.5 at 415 nm to stay in the linear range with the maximum sensitivity. A serial dilution of the compounds (200–1.56 µg/mL, 75 µL) was prepared in a 96-well plate. Each plate contained a positive control (0.1% Triton X-100 final concentration, 75 µL) and the negative control (buffer, 75 µL). After addition of normalized blood cells (75 µL), the plates were incubated for 20 h at 37 °C at 500 rpm. The plates were centrifuged (800× g for 5 min at room temperature). For the next step flat-bottom polystyrene plates were prepared with 100 µL buffer in each well. Aliquots of 25 µL supernatant from the centrifuged plates were then transferred to their respective wells in the flat-bottom plate. Absorbance values where measured at 415 nm and corrected for background (negative control) and transformed to a percentage hemolysis relative to the positive control.

[3] = test system: E. coli BW25113; test: Checkerboard assay with erythromycin; assay type: cell-based, Escherichia coli; settings: for MSCery: erythromycin concentration in the combination with the synergist giving the lowest FICi, E. coli BW25113; for MIC of the peptide (MICpep): synergist alone, from checkerboard with erythromycin; for MIC of the peptide (MICpep) / MSCpeptide, minimum synergistic concentration: E. coli BW25113, LB, 20 h 37 °C; for MSCpeptide, minimum synergistic concentration: synergist concentration in the combination with erythromycin giving the lowest FICi, OD600; for FICi: with erythromycin vs E. coli BW25113, synergy defined as FICi ≤ 0.5
Description: as §1, §2, §3, §4

SMILES	MICpep [1]	MIC of the peptide (MICpep) [3]	FICi [1]	MSCrif [1]	MSCpep [1]	Hemolysis [2]	MSCery [3]	MSCpeptide, minimum synergistic concentration [3]	FICi [3]
CC[C@H](C)[C@H](N)C(=O)N[C@H](C(=O)N[C@@H](CCCCN)C(=O)N[C@@H](CCC(N)=O)C(=O)N[C@H](C(=O)N[C@@H](Cc1c[nH]c2ccccc12)C(=O)N[C@@H](CCCCN)C(=O)N[C@@H](CCCCN)C(=O)N[C@@H](CC(C)C)C(=O)N[C@@H](CCCNC(=N)N)C(=O)N[C@@H](Cc1ccccc1)C(=O)N[C@H](C(N)=O)C(C)C)[C@@H](C)CC)C(C)C [peptide 21] (H-IVKQIWKKLRFV-NH2)	> 200 µg/mL	> 200 µg/mL	0.3750	2 µg/mL	50 µg/mL	2.2% and 2%	25 µg/mL	50 µg/mL	0.2500
CC[C@H](C)[C@H](NC(=O)[C@@H](NC(=O)[C@H](CCCCN)NC(=O)[C@H](CCC(N)=O)NC(=O)[C@@H](NC(=O)[C@H](Cc1c[nH]c2ccccc12)NC(=O)[C@H](C)NC(=O)[C@H](CCCCN)NC(=O)[C@H](CC(C)C)NC(=O)[C@H](CCCNC(=N)N)NC(=O)[C@H](Cc1ccccc1)NC(=O)[C@@H](N)C(C)C)[C@@H](C)CC)C(C)C)C(N)=O [compound 13] (H-VFRLKAWIQKVI-NH2)	25 µg/mL	25 µg/mL	0.5000	2 µg/mL	6.25 µg/mL	19.0%	3.125 µg/mL	12.5 µg/mL	> 0.5
CC[C@H](C)[C@H](NC(=O)[C@@H](NC(=O)[C@H](CCCCN)NC(=O)[C@H](CCC(N)=O)NC(=O)[C@@H](NC(=O)[C@H](Cc1c[nH]c2ccccc12)NC(=O)[C@H](CCCCN)NC(=O)[C@H](CCCCN)NC(=O)[C@H](C)NC(=O)[C@H](CCCNC(=N)N)NC(=O)[C@H](Cc1ccccc1)NC(=O)[C@@H](N)C(C)C)[C@@H](C)CC)C(C)C)C(N)=O [compound 11] (H-VFRAKKWIQKVI-NH2)	25 µg/mL	200 µg/mL	–	0.25 µg/mL	1.563 µg/mL	1.1% and 1%	12.5 µg/mL	25 µg/mL	–
CC[C@H](C)[C@H](NC(=O)[C@@H](NC(=O)[C@H](CCCCN)NC(=O)[C@H](CCC(N)=O)NC(=O)[C@@H](NC(=O)[C@H](Cc1c[nH]c2ccccc12)NC(=O)[C@H](CCCCN)NC(=O)[C@H](CCCCN)NC(=O)[C@H](CC(C)C)NC(=O)[C@H](CCCNC(=N)N)NC(=O)[C@H](Cc1ccccc1)NC(=O)[C@@H](N)C(C)C)[C@@H](C)CC)C(C)C)C(=O)O [peptide 1] (H-VFRLKKWIQKVI-OH)	200 µg/mL	200 µg/mL	–	0.25 µg/mL	12.5 µg/mL	0.1% and 0%	12.5 µg/mL	25 µg/mL	–
CC[C@H](C)[C@H](NC(=O)[C@@H](NC(=O)[C@H](CCCCN)NC(=O)[C@H](CCC(N)=O)NC(=O)[C@@H](NC(=O)[C@H](Cc1c[nH]c2ccccc12)NC(=O)[C@H](CCCCN)NC(=O)[C@H](CCCCN)NC(=O)[C@H](CC(C)C)NC(=O)[C@H](CCCNC(=N)N)NC(=O)[C@H](Cc1ccccc1)NC(=O)[C@@H](NC(C)=O)C(C)C)[C@@H](C)CC)C(C)C)C(=O)O [peptide 5] (Ac-VFRLKKWIQKVI-OH)	> 200 µg/mL	> 200 µg/mL	–	0.25 µg/mL	50 µg/mL	0.2% and 0%	6.25 µg/mL	50 µg/mL	–
CC[C@H](C)[C@H](NC(=O)[C@@H](NC(=O)[C@H](C)NC(=O)[C@H](CCC(N)=O)NC(=O)[C@@H](NC(=O)[C@H](Cc1c[nH]c2ccccc12)NC(=O)[C@H](CCCCN)NC(=O)[C@H](CCCCN)NC(=O)[C@H](CC(C)C)NC(=O)[C@H](CCCNC(=N)N)NC(=O)[C@H](Cc1ccccc1)NC(=O)[C@@H](N)C(C)C)[C@@H](C)CC)C(C)C)C(N)=O [compound 17] (H-VFRLKKWIQAVI-NH2)	25 µg/mL	12.5 µg/mL	0.2656	–	6.25 µg/mL	20.7% and 21%	6.25 µg/mL	6.25 µg/mL	> 0.5

Further lines, with some results ahead:

MICpep [1]	MIC of the peptide (MICpep) [3]	SMILES	FICi [1]	MSCrif [1]	MSCpep [1]	Hemolysis [2]	MSCery [3]	MSCpeptide, minimum synergistic concentration [3]	FICi [3]
12.5 µg/mL	6.25 µg/mL	CC[C@@H](C)[C@@H](NC(=O)[C@H](NC(=O)[C@@H](CCCCN)NC(=O)[C@@H](CCC(N)=O)NC(=O)[C@H](NC(=O)[C@@H](Cc1c[nH]c2ccccc12)NC(=O)[C@@H](CCCCN)NC(=O)[C@@H](CCCCN)NC(=O)[C@@H](CC(C)C)NC(=O)[C@@H](CCCNC(=N)N)NC(=O)[C@@H](Cc1ccccc1)NC(=O)[C@H](N)C(C)C)[C@H](C)CC)C(C)C)C(N)=O [peptide 20] (H-[dV][dF][dR][dL][dK][dK][dW][dI][dQ][dK][dV][dI]-NH2)	0.2813	0.25 µg/mL	3.125 µg/mL	3.2% and 3%	3.125 µg/mL	3.13 µg/mL	–
100 µg/mL	100 µg/mL	CC[C@H](C)[C@H](NC(=O)[C@@H](NC(=O)[C@H](CCCCN)NC(=O)[C@H](CCC(N)=O)NC(=O)[C@H](C)NC(=O)[C@H](Cc1c[nH]c2ccccc12)NC(=O)[C@H](CCCCN)NC(=O)[C@H](CCCCN)NC(=O)[C@H](CC(C)C)NC(=O)[C@H](CCCNC(=N)N)NC(=O)[C@H](Cc1ccccc1)NC(=O)[C@@H](N)C(C)C)C(C)C)C(N)=O [compound 15] (H-VFRLKKWAQKVI-NH2)	0.0938	0.25 µg/mL	6.25 µg/mL	0.9% and 1%	12.5 µg/mL	12.5 µg/mL	–
50 µg/mL	50 µg/mL	CC[C@H](C)[C@H](NC(=O)[C@H](C)NC(=O)[C@H](CCCCN)NC(=O)[C@H](CCC(N)=O)NC(=O)[C@@H](NC(=O)[C@H](Cc1c[nH]c2ccccc12)NC(=O)[C@H](CCCCN)NC(=O)[C@H](CCCCN)NC(=O)[C@H](CC(C)C)NC(=O)[C@H](CCCNC(=N)N)NC(=O)[C@H](Cc1ccccc1)NC(=O)[C@@H](N)C(C)C)[C@@H](C)CC)C(N)=O [compound 18] (H-VFRLKKWIQKAI-NH2)	0.0781	–	3.125 µg/mL	2.3% and 2%	12.5 µg/mL	3.125 µg/mL	0.1250
